{
  "source": "patent US20110112014A1",
  "about": "(priority 2008, published 2011)",
  "key": {"[1]": {"assay": "Blood glucose concentration after 2 l of beverage in overnight-fasted male subjects", "type": "in vivo, human", "details": "8 fasting male subjects; 2 l consumed between -120 and -40 min; FIG. 2", "description": "2 l of each beverage were consumed between −120 and −40 min.\nAfter an overnight fast, each subject consumed 2 l of one solution (between −120 min and −40 min in FIG. 1). All subjects had to ingest all types of solution, however in random order. Simultaneously, blood samples were taken and analyzed for plasma glucose and haemoglobin concentration as well as haematocrit. RER measurements confirmed that all subjects were in a fasting state."}, "[2]": {"assay": "Hydration effect of glycerol solutions by concentration", "type": "in vivo, human", "details": "also printed as 18 g/l"}, "[3]": {"details": "cited from earlier work"}, "[4]": {"details": "large doses; cited from earlier work"}},
  "note": "Entries after “also recorded” stand apart in the source; their conditions may differ.",
  "data": [
    {"smiles": "OCC(O)CO", "note": "[glycerol, propane-1,2,3-triol]", "values": [
      {"measurement": "Blood glucose concentration", "setting": "[1]", "result": "does not increase blood glucose levels; also recorded: remained unaffected"},
      {"measurement": "Concentration at which appreciable hydration effects are seen", "setting": "[2]", "result": "above 0.2 mol/l"},
      {"measurement": "Hepatic glucose production", "setting": "[3]; compared with fasting control conditions without exogenous glycerol load", "result": "does not increase hepatic glucose production"},
      {"measurement": "Plasma glucose concentrations", "setting": "[3]; healthy fasting subjects, glycerol supplementation", "result": "does not increase plasma glucose concentrations"},
      {"measurement": "Toxicity", "setting": "[4]", "result": "non-toxic"}
    ]}
  ]
}
